# Patent publication US20070082910A1, “Specific nad(p)h oxidase inhibitor” (Mitsubishi Pharma Corporation, priority 2003, published 2007)
# Marks after values point to notes of the source that are not given here.
# How the values were obtained:
# [1] = test system: NAD(P)H oxidase in diabetic rat aorta; experiment: NAD(P)H oxidase activity (superoxide anion production, lucigenin chemiluminescence) in aorta of streptozotocin diabetic rats after oral administration; format: in vivo; conditions: for inhibitory rate (%), NAD(P)H oxidase in diabetic rat aorta: once a day for 3 days
# Protocol: Streptozotocin (40 mg/kg) dissolved in 0.05 M citric acid buffer (pH 4.5) was administered into the tail vein of male Wistar rats (Japan SLC) to prepare diabetic rats. At 1 week to 8 weeks from the intravenous injection of streptozotocin, blood was drawn from the tail vein using a capillary treated with heparin, which was immediately cooled with ice and centrifuged at 3000 rpm, 15 min, 4° C. to give serum. The blood glucose level was measured by enzyme assay using a glucose measurement kit “GLU neo sinotest” (sinotest) and a microplate reader (SPECTRA MAX250, Molecular Devices).
# The NAD(P)H oxidase activity was measured by the following method, which was modified by the method of the David. G. Harrison et al. (J. Clin. Invest. 91, 2546-2551, 1993), at 4 days from the start of the test, with superoxide anion production in aorta as an index.
# To be specific, normal rat or diabetic rat free of the above-mentioned treatment was exsanguinated from the abdominal aorta, their thoracic aorta was removed. The removed thoracic aorta was immersed in Krebs-Hepes buffer and marginal tissues were removed to prepare an about 5 mm ring specimen. This ring specimen was preincubate in Krebs-Hepes buffer at 37° C. for 10 min and transferred to Krebs-Hepes buffer containing 0.25 mM lucigenin (SIGMA). 500 μM NADH (SIGMA) was added and chemiluminescence value (chemiluminescence: unit RLU: relative light units) was measured using a luminometer (MULTI-BIOLUMAT LB9505C, Warrack.Berthold) at 37° C. for 10 min. The total value of chemiluminescence was calculated from the area under the curve (hereinafter to be referred to as “AUC”) drawn by plotting the chemiluminescence value (vertical axis) relative to the measurement time (horizontal axis). The measured total value of chemiluminescence was divided by the wet weight of the vascular ring specimen and standardized to the superoxide anion production per aorta unit weight.
# The inhibitory rate (%) was calculated from the following formula: inhibitory rate (%)=100−[(A−C)/(B−C)]×100
# wherein A was the standardized value of chemiluminescence of diabetic rat administered with the test compound, B was the standardized value of chemiluminescence of diabetic rat without administration of the test compound, and C was the standardized value of chemiluminescence of normal rat without administration of the test compound.
# [2] = test system: NAD(P)H oxidase in diabetic rat aorta; experiment: Aorta NAD(P)H oxidase inhibitory effect, test compound added to aorta ring specimen in vitro; format: biochemical; conditions: for chemiluminescence (×10^5 RLU/wet weight of aorta): mean ± standard error
# Protocol: This ring specimen was preincubated in Krebs-Hepes buffer containing the test compound (compound A, compound B or DPI (SIGMA)) at 37° C. for 10 min, and then transferred to Krebs-Hepes buffer containing 0.25 mM lucigenin. […] The total value of chemiluminescence was calculated from AUC of the curve drawn by plotting the chemiluminescence value (vertical axis) relative to the measurement time (horizontal axis). The obtained chemiluminescence value was divided by the wet weight of the vascular ring specimen and standardized to the superoxide anion production per aorta unit weight.
# leukocyte NADPH oxidase = experiment: Effect on leukocyte NADPH oxidase (PMA-stimulated lucigenin chemiluminescence); format: cell-based, rat
# Protocol: Blood was drawn from the abdominal aorta of normal male Wister rats (Japan SLC) and immediately mixed with an ice-cold lysis buffer at 42 mL of the buffer per 3 mL of the blood.
# After 5 min, the mixture was centrifuged at 4° C., 1100 rpm for 5 min. The precipitate was suspended in an ice-cold Lysis buffer, and centrifuged again at 4° C., 1100 rpm for 5 min. This operation was repeated 3 times to obtain leukocytes. The obtained leukocytes were suspended in Krebs-Hepes buffer and the number of the cells was adjusted to 1×10^6/ml. 0.25 mM Lucigenin and the test agent were added, Phorbol 12-myristate 13-acetate (hereinafter to be indicated as “PMA”, SIGMA) was further added, and the chemiluminescence value was measured at 37° C. for 10 min.
# The inhibitory rate (%) was calculated by the following formula: inhibitory rate (%)=100−[(A−C)/(B−C))×[…] wherein A is the total chemiluminescence value of the leukocyte suspension with the addition of the test compound, B is the total chemiluminescence value of the leukocyte suspension (control) without addition of the test compound, and C is the total chemiluminescence value of the leukocyte suspension without stimulation with PMA.
# p22^Phox = experiment: Effect on p22^Phox expression induced by oxidized LDL in HUVEC (RT-PCR); format: cell-based, human
# Protocol: HUVEC was seeded in a 24-well collagen-coated plate. Compound A was added, and oxidized LDL (100 μg/mL) prepared from the blood obtained from normal healthy volunteers was added 24 hr later.
# At 24 hr after the oxidized LDL addition, total RNA was […] extracted using MgExtractor (TOYOBO) and DNase I treatment (Nippon gene) was conducted.
# The concentration of the total RNA was calculated by measuring absorbance (OD260) of a fraction therefrom.
# Using the obtained total RNA (100 ng), RT (reverse transcription) reaction (ABI) was carried out to synthesis cDNA.
# Using the synthesized cDNA (10 μL), PCR (polymerase chain reaction) was carried out (ABI), and expression amounts of p22^Phox which is a major component of NAD(P)H oxidase, and β-actin as an internal standard were measured.
# The expression amount of p22^Phox was standardized to the expression amount of β-actin and expressed based on the expression amount of (p22^Phox)/( β-actin) of normal as 100%.
# [3] = test system: rabbit chronic myocardial infarction (heart failure) model; experiment: Rabbit chronic myocardial infarction (heart failure) model; format: in vivo
# Protocol: Male NZW rabbits (Japan SLC) were fixed in the dorsal position and subjected to thoracotomy with pentobarbital anesthesia. A silk thread (No. 4) was applied to the basal part of the left coronary artery, a polyethylene tube (length 1 cm) was further applied and the left coronary artery was ligated using a thread. After 2 hr from the ligation, the thread on the polyethylene tube was cut to reperfusion. At 2 hr from the reperfusion, compound A (1 mg/kg) was administered once, and administered once a day for 12 weeks. After 12 weeks, an excess pentobarbital was administered, the heart was removed, and the weight thereof and the thickness of the left ventricle center wall were measured.
# The compound was evaluated by the mortality rate, heart weight and thickness of left ventricle.
# [4] = 0.1 μM added to aorta ring in vitro
# [5] = 1 μM added to aorta ring in vitro
# [6] = 1 mg/kg once a day for 12 weeks
# [7] = 1 mg/kg once a day, deaths/animals
structure (smiles),measurement,setting,value
C[C@@H](Nc1nnc(-c2ccccc2)c2ccccc12)C1CCCCC1.O=C(O)/C=C\C(=O)O [compound A],"inhibitory rate (%), NAD(P)H oxidase in diabetic rat aorta",[1]; 1 mg/kg oral,76.9%
same,"inhibitory rate (%), NAD(P)H oxidase in diabetic rat aorta",[1]; 10 mg/kg oral,105.8%
same,"inhibitory rate (%), NAD(P)H oxidase activity in diabetic rat aorta (Table 2)",[1]; 10 mg/kg orally once a day for 3 days,105.8%
same,chemiluminescence (×10^5 RLU/wet weight of aorta),"[1]; diabetic rat aorta, 10 mg/kg orally once a day for 3 days, mean ± standard error",3.8 ± 0.6 ×10^5 RLU/wet weight of aorta
same,inhibitory rate (%),[2]; [4],2.2%
same,chemiluminescence (×10^5 RLU/wet weight of aorta),[2]; [4],9.1 ± 1.7 ×10^5 RLU/wet weight of aorta
same,inhibitory rate (%),[2]; [5],1.1%
same,chemiluminescence (×10^5 RLU/wet weight of aorta),[2]; [5],9.2 ± 1.7 ×10^5 RLU/wet weight of aorta
same,NAD(P)H oxidase inhibitory effect on aorta ring in vitro,[2]; result in words,did not show an NAD(P)H oxidase inhibitory effect
same,"inhibitory rate (%), leukocyte NADPH oxidase","leukocyte NADPH oxidase; 1 μM, PMA-stimulated rat leukocytes, mean ± standard error",2.4 ± 13.6%
same,inhibitory effect on leukocyte NADPH oxidase,leukocyte NADPH oxidase; result in words,did not show an inhibitory effect on leukocyte NADPH oxidase
same,"p22^phox expression ((p22^Phox)/(β-actin), normal as 100%)","p22^Phox; oxidized LDL 100 μg/mL + 0.1 μM compound, mean ± standard error",116.64 ± 16.61 %
same,p22^Phox expression relative to the normal group,p22^Phox; oxidized LDL addition,1.2 fold
same,mortality rate,[3]; 1 mg/kg once a day,8%
same,heart weight (g/kg body weight),[3]; [6],2.05* g/kg body weight
same,thickness (mm) of left ventricle,[3]; [6],1.17* mm
same,"cumulative mortality, 2 weeks after ligation",[3]; [7],0/12
same,"cumulative mortality, 4 weeks after ligation",[3]; [7],1/12
